Laboratory results: PMC12446476 (Nature Communications, 2025)
Converted amounts (≈) assume the structure as drawn. Read-outs that look alike come from different tables or passages of the source.

Tested on: N. gonorrhoeae
Experiment: MIC determination, Etest
Assay type: cell-based, Neisseria gonorrhoeae
Settings: for MIC: Neisseria gonorrhoeae
Text: The 2024 WHO N. gonorrhoeae reference strains were used for quality control. Only whole MIC doubling dilutions are reported. Clinical breakpoints or the epidemiological cutoff (ECOFF, to indicate azithromycin resistance) from EUCAST (v14.0, https://www.eucast.org/clinical_breakpoints) were used to classify isolates as antimicrobial susceptible or resistant. […] Two times the standard inoculum defined by CLSI was used to establish consistent growth in untreated control samples for some strains. In vitro time-kill assays were performed according to CLSI guidelines[65] using Columbia Broth (BD Difco) supplemented with 1% IsoVitaleX Enrichment (BD). Viable bacterial counts were generated by plating 10-fold serially diluted samples on GC agar plates containing 1% IsoVitaleX Enrichment (BD).

- MIC (WHO F, Etest, read-out: MIC): 16 µg/mL (≈ 48.1 µM)
- MIC (WHO H, Etest, read-out: MIC): 8 µg/mL (≈ 24.1 µM)
- MIC (WHO K, Etest, read-out: MIC): 16 µg/mL (≈ 48.1 µM)
- MIC (WHO L, Etest, read-out: MIC): 16 µg/mL (≈ 48.1 µM)
- MIC (WHO M, Etest, read-out: MIC): 16 µg/mL (≈ 48.1 µM)
- MIC (WHO O, Etest, read-out: MIC): > 1020 µg/mL
- MIC (WHO P, Etest, read-out: MIC): 8 µg/mL (≈ 24.1 µM)
- MIC (WHO Q, Etest, read-out: MIC): 8 µg/mL (≈ 24.1 µM)
- MIC (WHO R, Etest, read-out: MIC): 8 µg/mL (≈ 24.1 µM)
- MIC (WHO S2, Etest, read-out: MIC): 16 µg/mL (≈ 48.1 µM)
- MIC (WHO U, Etest, read-out: MIC): 8 µg/mL (≈ 24.1 µM)
- MIC (WHO V, Etest, read-out: MIC): 16 µg/mL (≈ 48.1 µM)
- MIC (WHO X, Etest, read-out: MIC): 16 µg/mL (≈ 48.1 µM)
- MIC (WHO Y, Etest, read-out: MIC): 16 µg/mL (≈ 48.1 µM)
- MIC (WHO Z, Etest, read-out: MIC): 16 µg/mL (≈ 48.1 µM)
- MIC (comparator antibiotics, clinical N. gonorrhoeae isolate 1, Sweden 2023, read-out: Minimum inhibitory concentration): 16 µg/mL (≈ 48.1 µM)
- MIC (comparator antibiotics, clinical N. gonorrhoeae isolate 2, Sweden 2023, read-out: Minimum inhibitory concentration): 8 µg/mL (≈ 24.1 µM)
- MIC (comparator antibiotics, clinical N. gonorrhoeae isolate 3, Sweden 2023, read-out: Minimum inhibitory concentration): 16 µg/mL (≈ 48.1 µM)
- MIC (comparator antibiotics, clinical N. gonorrhoeae isolate 4, Sweden 2023, read-out: Minimum inhibitory concentration): 16 µg/mL (≈ 48.1 µM)
- MIC (comparator antibiotics, clinical N. gonorrhoeae isolate 5, Sweden 2023, read-out: Minimum inhibitory concentration): 8 µg/mL (≈ 24.1 µM)
- MIC (comparator antibiotics, clinical N. gonorrhoeae isolate 6, Sweden 2023, read-out: Minimum inhibitory concentration): 8 µg/mL (≈ 24.1 µM)
- MIC (comparator antibiotics, clinical N. gonorrhoeae isolate 7, Sweden 2023, read-out: Minimum inhibitory concentration): 16 µg/mL (≈ 48.1 µM)
- MIC (comparator antibiotics, clinical N. gonorrhoeae isolate 8, Sweden 2023, read-out: Minimum inhibitory concentration): 16 µg/mL (≈ 48.1 µM)
- MIC (comparator antibiotics, clinical N. gonorrhoeae isolate 9, Sweden 2023, read-out: Minimum inhibitory concentration): 8 µg/mL (≈ 24.1 µM)
- MIC (comparator antibiotics, clinical N. gonorrhoeae isolate 10, Sweden 2023, read-out: Minimum inhibitory concentration): 16 µg/mL (≈ 48.1 µM)
- MIC (comparator antibiotics, clinical N. gonorrhoeae isolate 11, Sweden 2023, read-out: Minimum inhibitory concentration): 16 µg/mL (≈ 48.1 µM)
- MIC (comparator antibiotics, clinical N. gonorrhoeae isolate 12, Sweden 2023, read-out: Minimum inhibitory concentration): 16 µg/mL (≈ 48.1 µM)
- MIC (comparator antibiotics, clinical N. gonorrhoeae isolate 13, Sweden 2023, read-out: Minimum inhibitory concentration): 16 µg/mL (≈ 48.1 µM)
- MIC (comparator antibiotics, clinical N. gonorrhoeae isolate 14, Sweden 2023, read-out: Minimum inhibitory concentration): 16 µg/mL (≈ 48.1 µM)
- MIC (comparator antibiotics, clinical N. gonorrhoeae isolate 15, Sweden 2023, read-out: Minimum inhibitory concentration): 16 µg/mL (≈ 48.1 µM)
- MIC (comparator antibiotics, clinical N. gonorrhoeae isolate 16, Sweden 2023, read-out: Minimum inhibitory concentration): 8 µg/mL (≈ 24.1 µM)
- MIC (comparator antibiotics, clinical N. gonorrhoeae isolate 17, Sweden 2023, read-out: Minimum inhibitory concentration): 8 µg/mL (≈ 24.1 µM)
- MIC (comparator antibiotics, clinical N. gonorrhoeae isolate 18, Sweden 2023, read-out: Minimum inhibitory concentration): 16 µg/mL (≈ 48.1 µM)
- MIC (comparator antibiotics, clinical N. gonorrhoeae isolate 19, Sweden 2023, read-out: Minimum inhibitory concentration): 16 µg/mL (≈ 48.1 µM)
- MIC (comparator antibiotics, clinical N. gonorrhoeae isolate 20, Sweden 2023, read-out: Minimum inhibitory concentration): 16 µg/mL (≈ 48.1 µM)
- MIC (comparator antibiotics, clinical N. gonorrhoeae isolate 21, Sweden 2023, read-out: Minimum inhibitory concentration): 16 µg/mL (≈ 48.1 µM)
- MIC (comparator antibiotics, clinical N. gonorrhoeae isolate 22, Sweden 2023, read-out: Minimum inhibitory concentration): 8 µg/mL (≈ 24.1 µM)
- MIC (comparator antibiotics, clinical N. gonorrhoeae isolate 23, Sweden 2023, read-out: Minimum inhibitory concentration): 8 µg/mL (≈ 24.1 µM)
- MIC (comparator antibiotics, clinical N. gonorrhoeae isolate 24, Sweden 2023, read-out: Minimum inhibitory concentration): 16 µg/mL (≈ 48.1 µM)
- MIC (comparator antibiotics, clinical N. gonorrhoeae isolate 25, Sweden 2023, read-out: Minimum inhibitory concentration): 8 µg/mL (≈ 24.1 µM)
- MIC (comparator antibiotics, clinical N. gonorrhoeae isolate 26, Sweden 2023, read-out: Minimum inhibitory concentration): 16 µg/mL (≈ 48.1 µM)
- MIC (comparator antibiotics, clinical N. gonorrhoeae isolate 27, Sweden 2023, read-out: Minimum inhibitory concentration): 8 µg/mL (≈ 24.1 µM)
- MIC (comparator antibiotics, clinical N. gonorrhoeae isolate 28, Sweden 2023, read-out: Minimum inhibitory concentration): 8 µg/mL (≈ 24.1 µM)
- MIC (comparator antibiotics, clinical N. gonorrhoeae isolate 29, Sweden 2023, read-out: Minimum inhibitory concentration): 16 µg/mL (≈ 48.1 µM)
- MIC (comparator antibiotics, clinical N. gonorrhoeae isolate 30, Sweden 2023, read-out: Minimum inhibitory concentration): 8 µg/mL (≈ 24.1 µM)
- MIC (comparator antibiotics, clinical N. gonorrhoeae isolate 31, Sweden 2023, read-out: Minimum inhibitory concentration): 8 µg/mL (≈ 24.1 µM)
- MIC (comparator antibiotics, clinical N. gonorrhoeae isolate 32, Sweden 2023, read-out: Minimum inhibitory concentration): 8 µg/mL (≈ 24.1 µM)
- MIC (comparator antibiotics, clinical N. gonorrhoeae isolate 33, Sweden 2023, read-out: Minimum inhibitory concentration): 8 µg/mL (≈ 24.1 µM)
- MIC (comparator antibiotics, clinical N. gonorrhoeae isolate 34, Sweden 2023, read-out: Minimum inhibitory concentration): 8 µg/mL (≈ 24.1 µM)
- MIC (comparator antibiotics, clinical N. gonorrhoeae isolate 35, Sweden 2023, read-out: Minimum inhibitory concentration): 16 µg/mL (≈ 48.1 µM)
- MIC (comparator antibiotics, clinical N. gonorrhoeae isolate 36, Sweden 2023, read-out: Minimum inhibitory concentration): 8 µg/mL (≈ 24.1 µM)
- MIC (comparator antibiotics, clinical N. gonorrhoeae isolate 37, Sweden 2023, read-out: Minimum inhibitory concentration): 8 µg/mL (≈ 24.1 µM)
- MIC (comparator antibiotics, clinical N. gonorrhoeae isolate 38, Sweden 2023, read-out: Minimum inhibitory concentration): 8 µg/mL (≈ 24.1 µM)
- MIC (comparator antibiotics, clinical N. gonorrhoeae isolate 39, Sweden 2023, read-out: Minimum inhibitory concentration): 16 µg/mL (≈ 48.1 µM)
- MIC (comparator antibiotics, clinical N. gonorrhoeae isolate 40, Sweden 2023, read-out: Minimum inhibitory concentration): 8 µg/mL (≈ 24.1 µM)
- MIC (comparator antibiotics, clinical N. gonorrhoeae isolate 41, Sweden 2023, read-out: Minimum inhibitory concentration): 16 µg/mL (≈ 48.1 µM)
- MIC (comparator antibiotics, clinical N. gonorrhoeae isolate 42, Sweden 2023, read-out: Minimum inhibitory concentration): 8 µg/mL (≈ 24.1 µM)
- MIC (comparator antibiotics, clinical N. gonorrhoeae isolate 43, Sweden 2023, read-out: Minimum inhibitory concentration): 16 µg/mL (≈ 48.1 µM)
- MIC (comparator antibiotics, clinical N. gonorrhoeae isolate 44, Sweden 2023, read-out: Minimum inhibitory concentration): 16 µg/mL (≈ 48.1 µM)
- MIC (comparator antibiotics, clinical N. gonorrhoeae isolate 45, Sweden 2023, read-out: Minimum inhibitory concentration): 16 µg/mL (≈ 48.1 µM)
- MIC (comparator antibiotics, clinical N. gonorrhoeae isolate 46, Sweden 2023, read-out: Minimum inhibitory concentration): 8 µg/mL (≈ 24.1 µM)
- MIC (comparator antibiotics, clinical N. gonorrhoeae isolate 47, Sweden 2023, read-out: Minimum inhibitory concentration): 16 µg/mL (≈ 48.1 µM)
- MIC (comparator antibiotics, clinical N. gonorrhoeae isolate 48, Sweden 2023, read-out: Minimum inhibitory concentration): 8 µg/mL (≈ 24.1 µM)
- MIC (comparator antibiotics, clinical N. gonorrhoeae isolate 49, Sweden 2023, read-out: Minimum inhibitory concentration): 16 µg/mL (≈ 48.1 µM)
Compound: CN[C@@H]1[C@H](O)[C@H](NC)[C@H]2O[C@@]3(O)C(=O)C[C@@H](C)O[C@H]3O[C@@H]2[C@H]1O [Spectinomycin]
- susceptibility of all isolates (100 contemporary clinical N. gonorrhoeae isolates, EUCAST): susceptible
